According to PMC11154717, “Evaluation of Novel Spiro-pyrrolopyridazine Derivatives as Anticancer Compounds: In Vitro Selective Cytotoxicity, Induction of Apoptosis, EGFR Inhibitory Activity, and Molecular Docking Analysis” (ACS Omega, 2024):
Read-outs that look alike come from different tables or passages of the source.

Experiments:
[1] = test system: Bcl-2; experiment: Western blot, Bcl-2 protein level; type: cell-based, human
Protocol: (§1) For the extraction of total proteins, the M-PER Mammalian Protein Extraction Reagent from Thermo Fisher was utilized. Specifically, cells were treated with 250 μL of the extraction reagent and incubated at room temperature for 10 min with gentle shaking at 300 rpm. After this step, the cell suspension underwent centrifugation at 14,000g for 10 min, and the resulting supernatant was collected. Determination of the protein concentration was carried out using the Bradford method. Following this, protein separation was accomplished through SDS polyacrylamide gel electrophoresis, followed by transfer to nitrocellulose membranes. Post transfer, the membranes underwent blocking with 5% nonfat dry milk for 1 h and were subjected to three washes with Tris-buffered saline (TBS). Incubation with primary antibodies (Bcl-2: Anti-Bcl-2 antibody [ab196495, Abcam]; Bax: Anti-Bax antibody [ab216494, Abcam]; cytochrome c: Anticytochrome c antibody [ab4051]; EGFR: Anti-EGFR antibody [ab32077]) occurred overnight at 4 °C. β-Actin served as the loading control. After the washing steps, the membranes were exposed to secondary antibodies for 1 h at room temperature (1:1000 dilution). Visualization of protein bands was performed using the Kodak Gel Logic 1500 imaging system, and quantification was carried out using ImageJ software.[16]

[2] = test system: nontumorigenic HEK-293 cells; experiment: XTT cell viability assay, HEK-293; type: cell-based, human; conditions: Homo sapiens, HEK293, 72 h
Protocol: (§2) Human breast cancer (MCF-7), human lung cancer (H69AR), and human prostate cancer (PC-3) human nontumorigenic HEK-293 cells were obtained from the Health Protection Agency (UK) and Interlab Cell Line Collection (ICLC, Italy). Cells were maintained in RPMI medium (Sigma) containing 10% heat-inactivated fetal bovine serum, 1% penicillin, and 1% L-glutamine in a 37° humidified CO2 incubator.
(§3) XTT (2,3-bis(2-methoxy-4-nitro-5-sulfophenyl)-2H-tetrazolium-5-carboxanilide) cell viability test was used to determine the cytotoxic activities of SPPs, which were dissolved in dimethyl sulfoxide (DMSO). Cells were seeded in 96-well plates at a density of 10^4/well and treated with increasing concentrations of SPP (1–250 μM) for 24, 48, and 72 h. After the incubation period, 100 μL of XTT was added to all experimental wells, and 96-well plates were incubated at 37 °C for 4 h. After the color change was observed, the absorbance values of the wells were recorded at 570 nm in the microplate reader (Tecan). The IC50 values for all synthesized compounds, representing the concentration needed to inhibit 50% of cancer cell proliferation, were determined using Biosoft CalcuSyn 2.1 software.[13] The following formula was used to calculate selectivity indexes (SIs), which represent the cytotoxic selectivity of SPPs against cancer cells and normal cells (HEK-293): […]

[3] = test system: PC-3 prostate cancer cells; experiment: XTT cell viability assay, PC-3; type: cell-based, human
Protocol: as §2, §3

[4] = test system: MCF-7 breast cancer cells; experiment: Annexin V/PI flow cytometric detection of apoptosis, MCF-7; type: cell-based, human; conditions: MCF-7, treated at IC50, 72 h
From the text: (§4) During apoptosis, PS translocates from the inner to outer regions of the plasma membrane, making it a valuable marker for apoptosis identification. Annexin V specifically attaches to PS present on the surface of apoptotic cells. To differentiate between apoptotic and viable cells with intact membranes, a secondary dye such as […] (PI) is employed. By assessing fluorescence patterns, viable cells (annexin V- and PI-) and apoptotic cells (annexin V+ and PI+) can be distinguished, providing insights into their respective percentages. We used FITC Annexin V Apoptosis Detection Kit I (BD Pharmingen).[15] […] Subsequently, cells were washed with cold PBS, resuspended in […] of 1× Binding Buffer, and stained with 5 μL of Annexin V FITC and 5 μL of PI. After vortexing, the solution was incubated at room temperature (25 °C) for 15 min in the dark. At the end of the incubation, 400 μL of 1× Binding Buffer was added to each sample, and apoptosis was assessed using flow cytometry (BD Accuri C6 Flow Cytometer).

[5] = test system: EGFRWT; experiment: Western blot, EGFR protein; type: cell-based, human; conditions: 72 h, MCF-7, H69AR and PC-3 cells
Protocol: as §1

[6] = test system: H69AR lung cancer cells; experiment: Annexin V/PI flow cytometric detection of apoptosis, H69AR; type: cell-based, human; conditions: treated at IC50, 72 h
From the text: as §4

[7] = test system: Bax; experiment: Western blot, Bax protein level; type: cell-based, human
Protocol: as §1

[8] = test system: MCF-7 breast cancer cells; experiment: XTT cell viability assay, MCF-7; type: cell-based, human
Protocol: as §2, §3

[9] = target: EGFR (Homo sapiens, UniProt P00533); experiment: EGFR kinase inhibitory assay (HTRF); type: biochemical; conditions: read-out: EGFR kinase inhibition IC50
Sequence of EGFR (P00533 25-1210): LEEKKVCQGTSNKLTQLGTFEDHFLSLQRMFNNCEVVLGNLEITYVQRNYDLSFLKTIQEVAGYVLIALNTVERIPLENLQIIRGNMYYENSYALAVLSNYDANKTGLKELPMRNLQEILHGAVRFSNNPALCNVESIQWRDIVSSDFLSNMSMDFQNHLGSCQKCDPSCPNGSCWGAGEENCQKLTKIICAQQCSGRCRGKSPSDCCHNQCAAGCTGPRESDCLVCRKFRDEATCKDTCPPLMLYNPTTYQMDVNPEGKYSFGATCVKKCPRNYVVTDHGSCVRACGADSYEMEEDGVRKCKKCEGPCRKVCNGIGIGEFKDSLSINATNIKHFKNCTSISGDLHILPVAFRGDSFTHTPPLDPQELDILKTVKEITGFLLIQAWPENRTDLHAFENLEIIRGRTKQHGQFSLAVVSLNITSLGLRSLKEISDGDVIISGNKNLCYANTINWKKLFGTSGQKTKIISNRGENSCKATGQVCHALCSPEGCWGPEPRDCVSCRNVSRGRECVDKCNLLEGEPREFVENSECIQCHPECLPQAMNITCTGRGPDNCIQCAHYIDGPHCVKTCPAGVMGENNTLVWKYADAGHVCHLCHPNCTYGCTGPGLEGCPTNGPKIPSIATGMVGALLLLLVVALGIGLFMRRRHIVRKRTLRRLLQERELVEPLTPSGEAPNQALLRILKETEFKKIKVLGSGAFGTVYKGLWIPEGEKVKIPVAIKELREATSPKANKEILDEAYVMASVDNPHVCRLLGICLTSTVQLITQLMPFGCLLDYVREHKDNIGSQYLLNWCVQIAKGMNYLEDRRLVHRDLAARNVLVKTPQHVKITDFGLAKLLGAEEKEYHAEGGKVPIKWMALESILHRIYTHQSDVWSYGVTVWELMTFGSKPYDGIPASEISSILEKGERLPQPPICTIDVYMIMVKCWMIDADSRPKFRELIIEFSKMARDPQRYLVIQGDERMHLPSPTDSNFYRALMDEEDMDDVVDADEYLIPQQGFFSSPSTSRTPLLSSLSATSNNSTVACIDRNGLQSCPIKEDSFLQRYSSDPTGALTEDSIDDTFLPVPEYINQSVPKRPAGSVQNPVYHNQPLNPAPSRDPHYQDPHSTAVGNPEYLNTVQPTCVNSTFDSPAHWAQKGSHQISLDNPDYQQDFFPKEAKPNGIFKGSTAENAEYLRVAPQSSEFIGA
Protocol: The inhibitory effects of the target compounds on various EGFR kinases were evaluated through a well-established homogeneous time-resolved fluorescence (HTRF) method-based assay, utilizing the HTRF KinEASE-TK kit (cat #62TK0PEC, Cisbio).[17] SPP10 underwent screening at progressively diluted concentrations in the presence of 1% dimethyl sulfoxide (DMSO), preceded by a 5 min preincubation of the kinase and compounds. […] Following a 1 h plate incubation, readings were taken on a microplate reader using standard HTRF settings. IC50 values were determined using GraphPad Prism 5.0 software. Each reaction was carried out in duplicate, and a minimum of three independent determinations were performed. The data were analyzed using GraphPad Prism.

[10] = test system: cytochrome c; experiment: Western blot, cytochrome c protein level; type: cell-based, human
Protocol: as §1

[11] = target: EGFRT790M (Homo sapiens, UniProt P00533, T790M); experiment: EGFRT790M kinase inhibitory assay (HTRF); type: biochemical; conditions: read-out: EGFRT790M kinase inhibition IC50
Sequence of EGFRT790M (P00533 25-1210 T790M): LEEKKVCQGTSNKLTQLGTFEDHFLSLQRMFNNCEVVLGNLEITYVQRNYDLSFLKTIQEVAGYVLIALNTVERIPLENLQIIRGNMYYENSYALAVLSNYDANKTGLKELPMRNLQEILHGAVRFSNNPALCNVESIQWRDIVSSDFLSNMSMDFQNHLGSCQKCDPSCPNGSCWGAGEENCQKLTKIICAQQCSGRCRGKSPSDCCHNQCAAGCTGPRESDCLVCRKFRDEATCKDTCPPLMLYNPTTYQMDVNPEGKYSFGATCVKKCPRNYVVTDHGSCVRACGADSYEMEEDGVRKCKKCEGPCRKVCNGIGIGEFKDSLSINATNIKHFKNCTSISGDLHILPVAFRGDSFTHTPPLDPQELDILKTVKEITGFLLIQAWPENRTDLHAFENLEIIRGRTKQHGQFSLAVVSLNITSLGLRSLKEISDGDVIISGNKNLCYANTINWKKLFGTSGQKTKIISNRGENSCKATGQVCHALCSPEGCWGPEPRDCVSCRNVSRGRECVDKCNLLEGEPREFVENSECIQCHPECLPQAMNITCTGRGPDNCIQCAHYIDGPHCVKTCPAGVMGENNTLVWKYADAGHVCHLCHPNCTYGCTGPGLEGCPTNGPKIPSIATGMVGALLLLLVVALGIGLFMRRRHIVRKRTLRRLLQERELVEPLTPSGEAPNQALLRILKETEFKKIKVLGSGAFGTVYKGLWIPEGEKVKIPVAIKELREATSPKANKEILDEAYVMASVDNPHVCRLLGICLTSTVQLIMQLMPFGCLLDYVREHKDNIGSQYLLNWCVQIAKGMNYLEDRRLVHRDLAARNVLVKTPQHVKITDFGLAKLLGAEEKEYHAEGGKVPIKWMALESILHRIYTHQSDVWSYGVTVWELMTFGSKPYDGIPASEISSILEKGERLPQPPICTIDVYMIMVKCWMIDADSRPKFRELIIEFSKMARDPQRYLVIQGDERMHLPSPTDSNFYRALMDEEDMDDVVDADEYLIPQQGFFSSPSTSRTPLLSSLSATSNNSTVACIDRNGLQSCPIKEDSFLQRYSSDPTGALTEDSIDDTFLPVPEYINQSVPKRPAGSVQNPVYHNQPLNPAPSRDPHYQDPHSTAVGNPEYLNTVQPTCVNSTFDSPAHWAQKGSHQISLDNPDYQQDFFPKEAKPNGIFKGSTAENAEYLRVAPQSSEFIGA
Protocol: The inhibitory effects of the target compounds on various EGFR kinases were evaluated through a well-established homogeneous time-resolved fluorescence (HTRF) method-based assay, utilizing the HTRF KinEASE-TK kit (cat #62TK0PEC, Cisbio).[17] SPP10 underwent screening at progressively diluted concentrations in the presence of 1% dimethyl sulfoxide (DMSO), preceded by a 5 min preincubation of the kinase and compounds. Initiation of all reactions occurred by adding ATP and TK-substrate-biotin, followed by a 60 min incubation at room temperature and subsequent quenching with a stop buffer containing 62.5 nM Strep-XL665 and TK antibody (Ab)-Cryptate. Following a 1 h plate incubation, readings were taken on a microplate reader using standard HTRF settings. IC50 values were determined using GraphPad Prism 5.0 software. Each reaction was carried out in duplicate, and a minimum of three independent determinations were performed. The data were analyzed using GraphPad Prism.

[12] = test system: H69AR lung cancer cells; experiment: XTT cell viability assay, H69AR; type: cell-based, human
Protocol: as §2, §3

[13] = test system: PC-3 prostate cancer cells; experiment: Annexin V/PI flow cytometric detection of apoptosis, PC-3; type: cell-based, human; conditions: PC-3, treated at IC50, 72 h
From the text: as §4

c1ccc(-c2nnc(-c3ccccc3)c3c2C(c2ccsc2)=NC32CCCCC2)cc1 [SPP10]
Bcl-2 protein level inhibited by ([1]; H69AR, IC50 of SPP10, 72 h): 2.6 fold | Bcl-2 protein level inhibited by ([1]; MCF-7, IC50 of SPP10, 72 h): 2.3 fold | Bcl-2 protein level inhibited by ([1]; PC-3, IC50 of SPP10, 72 h): 3.2 fold | IC50 [2]: 26800 ± 400 nM | IC50 ([3]; Homo sapiens, XTT, 72 h): 4200 ± 200 nM | selectivity index (SI) PC-3 ([3]; versus HEK-293): 6.38 | percentage of early apoptotic cells [4]: 28.7% | percentage of late apoptotic cells [4]: 59.3% | inhibition of EGFRWT protein (western blot) [5]: concentration-dependent inhibition | percentage of early apoptotic cells [6]: 25.6% | percentage of late apoptotic cells [6]: 61.2% | Bax protein level induced by ([7]; H69AR, IC50 of SPP10, 72 h): 4.1 fold | Bax protein level induced by ([7]; MCF-7, IC50 of SPP10, 72 h): 3.4 fold | Bax protein level induced by ([7]; PC-3, IC50 of SPP10, 72 h): 5.2 fold | IC50 ([8]; Homo sapiens, MCF7, XTT, 72 h): 2310 ± 300 nM | selectivity index (SI) MCF-7 ([8]; versus HEK-293): 11.6 | IC50 ([9]; in H69AR cells): 200 nM | IC50 ([9]; in MCF-7 cells): 400 ± 120 nM | IC50 ([9]; in PC-3 cells): 420 ± 800 nM | IC50 ([9]; span in cancer cells): 200 to 420 nM | Cytochrome c level induced by ([10]; H69AR, IC50 of SPP10, 72 h): 3.6 fold | Cytochrome c level induced by ([10]; MCF-7, IC50 of SPP10, 72 h): 3.8 fold | Cytochrome c level induced by ([10]; PC-3, IC50 of SPP10, 72 h): 4.4 fold | IC50 ([11]; in H69AR cells): 250 ± 700 nM | IC50 ([11]; in MCF-7 cells): 370 ± 200 nM | IC50 ([11]; in PC-3 cells): 390 ± 200 nM | IC50 ([12]; Homo sapiens, H69AR, XTT, 72 h): 3160 ± 800 nM | selectivity index (SI) H69AR ([12]; versus HEK-293): 8.48 | percentage of early apoptotic cells [13]: 21.8% | percentage of late apoptotic cells [13]: 64.9%
